Laboratory results reported in patent US6482934B1, “Methods and compositions for detecting and treating kidney diseases associated with adhesion of crystals to kidney cells” (ARCH Development Corp., priority 1995, dated 2002).
“Also recorded” adds a separate entry of the source. Where a name gives a salt, the structure may show the parent alone. Read-outs that look alike come from different tables or passages of the source.

Assays:
[1] = system: BSC-1 cells; experiment: [14C]COM crystal adhesion to BSC-1 cell monolayers; format: cell-based, African green monkey; settings: for IC50 / Half-maximal concentration: concentration that inhibited crystal adhesion by 50%; for IC50 / Kd / Half-maximal concentration / Langmuir affinity constant (dissociation constant): N.I. = noninhibitory; for IC50: read-out: Half-maximal concentration; for Kd / Langmuir affinity constant (dissociation constant): slope of Langmuir isotherm plot of crystal adhesion; for Kd: read-out: Langmuir affinity constant (dissociation constant); for effect on adhesion of COM crystals: concentrations as high as 1 μM
Experimental: (§1) Renal epithelial cells of the nontransformed African green monkey line (BSC-1) were used. Cells were grown in Dulbecco-Vogt modified Eagle's medium containing 25 mM glucose (DMEM), 1.6 μM biotin and 1% calf serum at 38° C. in a CO2 incubator. Under these conditions, BSC-1 cells achieved confluence at 10^6 cells per 60-mm plastic dish (Nunc). High-density, quiescent cultures were prepared by plating 2×10^6 cells in a 60-mm dish. The spent medium was changed after 3 days so that there were 3-4×10^6 cells/dish 6 days later. Medium was then aspirated and replaced with fresh medium containing […] and 0.01% calf serum; 3 days later the quiescent cultures were used for study.
Crystals are sterilized by heating to 180° C. overnight.
High-density, quiescent cultures of BSC-1 cells, MDCK cells, or Balb/c3T3 fibroblasts are prepared. At the time of assay, the medium is aspirated and replaced with 5 ml of phosphate-buffered saline (PBS) (10 mM Na2PO4, 155 mM NaCl, 5.4 mM KCl, pH 7.4 at 37° C.) to which the compound under investigation is added. […] The culture dishes are gently agitated for 5 seconds to uniformly distribute crystals which subsequently settle to the surface of the cell monolayer under the force of gravity. After two minutes buffer is aspirated and the cells are then washed three times with PBS (5 ml). The cell monolayer is then scraped directly into a scintillation vial containing 6 N HCl (0.5 ml) to which 4.5 ml of Ecoscint (National Diagnostics, E. Palmetto, Fla.) is added, and the amount of radioactivity is measured as described by Riese, et al. (1992).

[2] = system: Balb/c3T3 fibroblasts; experiment: Crystal endocytosis by Balb/c3T3 fibroblasts; format: cell-based; settings: 10 μg/ml; COM crystals 200 μg/ml
Experimental: Balb/c3T3 fibroblasts were grown in DMEM containing 10% calf serum. To prepare high-density, quiescent cultures, 7×10^5 cells were plated per 60-mm dish. Two days later the medium was aspirated and replaced with fresh medium containing 1% calf serum and 1.6 μM biotin; the cells were used one day later when a density of […] was reached.
(§2) At specified times after addition of crystals to high-density, quiescent cultures the medium was aspirated and a solution of crystalline trypsin was used to detach cells which were then inspected under a polarizing microscope. One hundred cells from each culture were counted, and each cell was scored for the presence of one or more internalized crystal(s).

[3] = system: BSC-1 cells; experiment: Crystal endocytosis by BSC-1 cells; format: cell-based, African green monkey; settings: for combined stimulatory effects on COM crystal endocytosis: ADP 200 μM and EGF 5 ng/ml
Experimental: as §1, §2

[4] = system: MDCK cells; experiment: Crystal endocytosis by MDCK cells; format: cell-based, canine; settings: 10 μg/ml; COM crystals 200 μg/ml
Experimental: Madin-Darby Canine Kidney (MDCK) cells were grown in DMEM containing 2% calf serum and 1.6 μM biotin as described previously. To prepare high-density, quiescent cultures 2×10^6 cells/60-mm dish were plated in DMEM containing 2% calf serum and 1.6 μM biotin. The next day medium was aspirated and replaced with fresh medium containing 0.5% calf serum and biotin. One day later the cultures were used for study.
as §2

[5] = system: BSC-1 cells; experiment: Adhesion of agent-coated COM crystals to BSC-1 cells; format: cell-based, African green monkey; settings: compared with uncoated control crystals
Experimental: Each tube is then centrifuged at 3000 g for 5 minutes. The supernatant is gently aspirated and replaced with a supersaturated calcium oxalate solution to resuspend the coated crystals. To assure removal of any nonabsorbed compound, crystals are resuspended and washed three times in succession. Cell-associated radioactivity is determined 2 minutes after addition of these coated crystals as described herein.

Molecule | effect on adhesion of COM crystals to BSC-1 cells (in words) [1] | concentration above which COM crystal adhesion was inhibited [1] | IC50 [1] [nM] | Kd [1] [nM] | adhesion of crystals previously coated with the molecule [5] | other results
CC(=O)NC1C(O)OC(CO)C(OS(=O)(=O)O)C1OC1OC(C(=O)O)=CC(O)C1O (stereo not shown) [4-S] | without effect | – | – | – | – | –
arginine-glycine-aspartic acid-serine [RGDS] | – | – | – | – | – | effect on crystal uptake by fibroblasts [2]: did not alter crystal uptake by fibroblasts; inhibition of COM crystal endocytosis compared to control ([3]; RGDS 5 μg/ml): 30%; combined inhibitory effects on COM crystal endocytosis ([3]; RGDS 10 μg/ml, heparin 5 μg/ml and TGF-β2 2 ng/ml): not additive; maximal inhibition of COM crystal endocytosis ([3]; RGDS at higher concentrations (above 5 μg/ml)): 41%; inhibition of COM crystal endocytosis by MDCK cells [4]: 48%
Heparan sulfate | prevented binding of COM crystals | above 0.8 μM | 100 | 881 | – | effect on endocytosis of COM crystals ([3]; heparan sulfate 2-25 μg/ml): did not alter endocytosis of COM crystals
O=C(O)CC(O)(CC(=O)O)C(=O)O [Sodium citrate] | inhibited binding of COM crystals | above 250 μM | – | 431000 | – | IC50 ([1]; Chlorocebus sabaeus, BSC-1): 200000 nM
Uropontin: urinary glycoprotein, inhibitor of COM crystal growth | inhibited binding of COM crystals; also recorded: blocking adhesion of COM crystals to BSC-1 cells | – | 20 | 43 | less than control | block of COM crystal binding ([1]; uropontin 0.1 μM): 73%
Polylysine | – | – | 2500 | – | to the same extent as did uncoated crystals | effect on adhesion of COM crystals [1]: no effect
Polyglutamic acid | blocked adherence of COM crystals | > 0.02 µM | 10 | 26 | less than control | –
CC(=O)NC1C(O)OC(CO)C(O)C1OC1OC(C(=O)O)=CC(O)C1O (stereo not shown) [0-S] | without effect | – | – | – | – | –
Chondroitin sulfate A | prevented binding of COM crystals | above 1.4 μM | 600 | 38 | – | –
Hyaluronic acid | prevented binding of COM crystals | above 0.01 μM | 20 | 13 | – | –
Polyvinyl sulfate | – | > 0.1 µM | 20 | 49 | – | –
Nc1ncnc2c1ncn2[C@@H]1O[C@H](COP(=O)(O)OP(=O)(O)O)[C@@H](O)[C@H]1O [ADP, adenosine diphosphate] | – | – | – | – | – | increase in COM crystal uptake compared to control ([3]; ADP 2 μM): 52%; combined stimulatory effects on COM crystal endocytosis [3]: not additive
EGF: epidermal growth factor, mitogen | – | – | – | – | – | combined stimulatory effects on COM crystal endocytosis [3]: not additive; increase in COM crystal endocytosis compared to control ([3]; EGF 10 ng/ml): 55%
Dextran sulfate | – | > 0.01 µM | 10 | 13 | less than control | –
albumin | – | – | – | – | to the same extent as did uncoated crystals | –
Polyaspartic acid | blocked adherence of COM crystals | above 0.007 μM | 7 | 23 | less than control | –
Fibronectin | – | – | – | – | – | effect on crystal uptake by fibroblasts [2]: did not alter crystal uptake by fibroblasts; maximal inhibition of COM crystal endocytosis ([3]; fibronectin 2.5 μg/ml): 33%; inhibition of COM crystal endocytosis by MDCK cells [4]: 59%
Chondroitin sulfate B | prevented binding of COM crystals | > 0.4 µM | 100 | 206 | less than control | –
O=C(O)CC(CC(=O)O)(OP(=O)(O)O)C(=O)O [Phosphocitrate] | – | above 50 μM | 50000 | 43800 | – | –
Polyarginine | – | – | – | – | to the same extent as did uncoated crystals | Half-maximal concentration [1]: N.I.; effect on adhesion of COM crystals [1]: no effect; Langmuir affinity constant (dissociation constant) [1]: N.I.
Pentosan polysulfate | – | above 0.33 μM | 20 | 131 | – | –
Chondroitin sulfate C | – | – | – | – | – | Half-maximal concentration [1]: N.I.; effect on COM crystal adherence ([1]; concentrations as high as 37 μM): no effect; Langmuir affinity constant (dissociation constant) [1]: N.I.
protamine sulfate | – | – | – | – | – | effect on heparin inhibition of crystal binding, added after heparin ([1]; after 30 minutes exposure to heparin): completely reversed inhibition of crystal binding; effect on heparin inhibition of crystal adhesion, added together with heparin ([1]; protamine sulfate 100 μg/ml with heparin 10 μg/ml): abolished the polyanion's inhibitory effect; effect on crystal adhesion, alone ([1]; protamine sulfate alone): inert
CC(=O)NC1C(O)OC(COS(=O)(=O)O)C(O)C1OC1OC(C(=O)O)=CC(O)C1O (stereo not shown) [6-S] | without effect | – | – | – | – | –
